Data taken from article PMC5613217 (Biochemistry and Biophysics Reports, 2017).

What was measured:
MtbNei2 (Rv3297) [1] = target: T1, MtbNei2 (Rv3297) (Mycobacterium tuberculosis, UniProt P9WNC1); assay: In vitro inhibition of Uracil DNA glycosylase activity of MtbNei2; assay type: biochemical; conditions: for Inhibition of Uracil DNA glycosylase activity (in words): 50-800 µM inhibitor, 80 nM MtbNei2
T1 sequence (P9WNC1 1-255): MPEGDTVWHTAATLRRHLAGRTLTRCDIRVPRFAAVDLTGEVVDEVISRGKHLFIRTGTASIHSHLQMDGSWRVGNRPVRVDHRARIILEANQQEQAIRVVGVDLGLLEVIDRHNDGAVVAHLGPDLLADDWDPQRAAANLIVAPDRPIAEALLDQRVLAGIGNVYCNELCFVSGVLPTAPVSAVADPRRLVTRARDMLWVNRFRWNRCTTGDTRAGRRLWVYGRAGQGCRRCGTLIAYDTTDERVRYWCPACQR

MtbNei2 (Rv3297) [2] = target: T1, MtbNei2 (Rv3297); assay: In vitro inhibition of AP site cleavage; assay type: biochemical; conditions: for Inhibition of AP site cleavage activity (in words): 50-800 µM inhibitor, 80 nM MtbNei2

| SMILES | IC50 (MtbNei2 (Rv3297) [1]) [µM] | Inhibition of Uracil DNA glycosylase activity (in words) (MtbNei2 (Rv3297) [1]) | IC50 (MtbNei2 (Rv3297) [2]) [µM] | Inhibition of AP site cleavage activity (in words) (MtbNei2 (Rv3297) [2]) |
| --- | --- | --- | --- | --- |
| COc1c2c(cc3c1[C@@H]1Oc4c(ccc(O)c4CC=C(C)C)[C@@H]1CO3)OC(C)(C)C=C2 [NSC250430, Gangetin] | 76.2 | good inhibition | 43.6 | good inhibition |
| C[C@H]1Oc2cc3c(-c4c(O)cc(O)c5c(O)c6c(cc45)O[C@H](C)[C@@H](C)C6=O)c(O)cc(O)c3c(O)c2C(=O)[C@@H]1C [NSC345647, Chaetochromin] | 92.7 | good inhibition | 84.7 | good inhibition |
